Target: Myc/Max binding to DNA (Homo sapiens, UniProt P01106)
Assay: Electrophoretic mobility shift assay (EMSA) of Myc/Max binding to DNA
Type: biochemical
Details: not given
Protocol: We also tested our best hit compound Min9 (NUCC-0176234) and newly synthesized analogs for effects of these compounds on Myc/Max binding to DNA in electrophoretic mobility shift assays (EMSAs). (See FIG. 5a and FIG. 5b). We expected the active compounds to impair Myc/Max binding to DNA. Several strucutural analogs of Min9 were tested over multiple doses for inhibiting Myc-DNA binding and we observed a dose-dependent inhibition. (See FIG. 5c).
Additional compounds were synthesized and tested in the EMSA assay at concentrations of 200 μM, 100 μM, and 50 μM.

Chain of Myc/Max binding to DNA (P01106 whole entry): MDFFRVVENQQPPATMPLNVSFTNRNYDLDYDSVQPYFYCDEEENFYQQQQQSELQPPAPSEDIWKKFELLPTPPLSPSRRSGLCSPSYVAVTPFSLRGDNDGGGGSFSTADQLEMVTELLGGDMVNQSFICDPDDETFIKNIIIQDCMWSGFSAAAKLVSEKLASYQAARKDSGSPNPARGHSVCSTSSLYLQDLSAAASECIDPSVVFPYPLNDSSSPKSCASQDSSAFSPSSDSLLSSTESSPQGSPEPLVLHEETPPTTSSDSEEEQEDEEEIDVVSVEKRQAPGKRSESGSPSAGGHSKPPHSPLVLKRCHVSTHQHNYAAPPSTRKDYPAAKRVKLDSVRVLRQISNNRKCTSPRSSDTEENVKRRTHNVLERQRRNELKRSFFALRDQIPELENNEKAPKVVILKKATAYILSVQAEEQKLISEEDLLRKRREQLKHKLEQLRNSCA

`CCc1ccc(Oc2c(-c3ccc(OCCc4cccc(C(F)(F)F)c4)cc3O)n[nH]c2C(F)(F)F)cc1` [NUCC-0176245] and `CCc1ccc(Oc2c(-c3ccc(OCc4cccc(Cl)c4)cc3O)n[nH]c2C(F)(F)F)cc1` [compound 0196295] are within 1.5-fold of each other in IC50: 95 µM for the first, 66 µM for the second.

`COc1ccc(-c2c(-c3ccc(OCc4ccc(Cl)cc4)cc3O)n[nH]c2C(F)(F)F)cc1OC` [compound 0196283] and `Cn1cc(Oc2ccccc2Cl)c(-c2ccc(OCc3ccc(Cl)cc3)cc2O)n1` [compound 0196305] are within 1.5-fold of each other in IC50: 49 µM for the first, 39 µM for the second.

Same assay, conditions: EMSA, 100 uM test compound; read-out: Bound DNA (%) (100uM)

First: CCc1ccc(Oc2c(-c3ccc(OCCc4cccc(C(F)(F)F)c4)cc3O)n[nH]c2C(F)(F)F)cc1 [NUCC-0176245]
Second: CCc1ccc(Oc2c(-c3ccc(OCCc4ccc(Cl)cc4)cc3O)n[nH]c2C(F)(F)F)cc1 [compound 0196357]
The remaining activity at 100 µM of the first is higher: 36% for the first, 28% for the second.

Compared with `CCc1ccc(Oc2c(-c3ccc(OCc4ccc(Cl)cc4)cc3O)n[nH]c2CC)cc1` [compound 0196282], `CCc1ccc(Oc2c(-c3ccc(OCc4ccc(Cl)cc4)cc3O)nn(C)c2CC)cc1` [compound 0196294] is higher in remaining activity at 100 µM: 87% for the first, 106% for the second.

Going from `COc1ccc(-c2c(-c3ccc(OCc4ccc(Cl)cc4)cc3O)n[nH]c2C(F)(F)F)cc1OC` [compound 0196283] to `COc1ccc(-c2c(-c3ccc(OCc4ccc(Cl)cc4)cc3O)nn(C)c2C(F)(F)F)cc1OC` [compound 0196311], the remaining activity at 100 µM rises from 4% to 94%.

Going from `Cc1ccc(C)c(Oc2c[nH]nc2-c2ccc(OCc3ccc(Cl)cc3)cc2O)c1` [compound 0196284] to `Cc1ccc(C)c(Oc2c[nH]nc2-c2ccc(OCc3cccc(Cl)c3)cc2O)c1` [compound 0196286], the remaining activity at 100 µM rises from 59% to 65%.

Compared with `Cc1ccc(C)c(Oc2cn(C)nc2-c2ccc(OCc3ccc(Cl)cc3)cc2O)c1` [compound 0196285], `Cc1ccc(C)c(Oc2cn(C)nc2-c2ccc(OCc3cccc(Cl)c3)cc2O)c1` [compound 0196287] is lower in remaining activity at 100 µM: 118% for the first, 115% for the second.

Going from `COc1cccc(COc2ccc(-c3n[nH]cc3Oc3cc(C)ccc3C)c(O)c2)c1` [compound 0196288] to `COc1cccc(COc2ccc(-c3nn(C)cc3Oc3cc(C)ccc3C)c(O)c2)c1` [compound 0196289], the remaining activity at 100 µM rises from 81% to 136%.

Compared with `Cc1ccc(C)c(Oc2c[nH]nc2-c2ccc(OCc3ccc4ccccc4c3)cc2O)c1` [compound 0196290], `Cc1ccc(C)c(Oc2cn(C)nc2-c2ccc(OCc3ccc4ccccc4c3)cc2O)c1` [compound 0196291] is higher in remaining activity at 100 µM: 92% for the first, 110% for the second.

Compared with `CCc1ccc(Oc2c(-c3ccc(OCc4cccc(Cl)c4)cc3O)n[nH]c2C(F)(F)F)cc1` [compound 0196295], `CCc1ccc(Oc2c(-c3ccc(OCc4cccc(OC)c4)cc3O)n[nH]c2C(F)(F)F)cc1` [compound 0196297] is higher in remaining activity at 100 µM: 12% for the first, 45% for the second.

Going from `CCc1ccc(Oc2c(-c3ccc(OCc4cccc(Cl)c4)cc3O)nn(C)c2C(F)(F)F)cc1` [compound 0196296] to `CCc1ccc(Oc2c(-c3ccc(OCc4cccc(OC)c4)cc3O)nn(C)c2C(F)(F)F)cc1` [compound 0196298], the remaining activity at 100 µM rises from 73% to 98%.

Compared with `Cc1ccc(C)c(Oc2cn(C)nc2-c2ccc(OCCN3CCCCC3)cc2O)c1` [compound 0196299], `Cn1nc(-c2ccc(OCCN3CCOCC3)cc2O)c(Oc2ccccc2Cl)c1C(F)(F)F` [compound 0196341] is higher in remaining activity at 100 µM: 138% for the first, 154% for the second.

First: Oc1cc(OCc2ccc(Cl)cc2)ccc1-c1n[nH]c(C(F)(F)F)c1Oc1cccc(F)c1 [compound 0196301]
Second: Cn1nc(-c2ccc(OCc3ccc(Cl)cc3)cc2O)c(Oc2cccc(F)c2)c1C(F)(F)F [compound 0196302]
The remaining activity at 100 µM of the first is lower: 43% for the first, 65% for the second.

Going from `Oc1cc(OCc2ccc(Cl)cc2)ccc1-c1n[nH]cc1Oc1ccc(Cl)cc1` [compound 0196303] to `Oc1cc(OCc2ccc(Cl)cc2)ccc1-c1n[nH]cc1Oc1ccccc1Cl` [compound 0196343], the remaining activity at 100 µM falls from 72% to 48%.

First: Cn1nc(-c2ccc(OCc3ccc(Cl)cc3)cc2O)c(Oc2ccccc2Cl)c1C(F)(F)F [compound 0196304]
Second: Oc1cc(OCc2ccc(Cl)cc2)ccc1-c1n[nH]c(C(F)(F)F)c1Oc1ccccc1Cl [compound 0196342]
The remaining activity at 100 µM of the first is higher: 13% for the first, 1% for the second.

First: Cn1cc(Oc2ccccc2Cl)c(-c2ccc(OCc3ccc(Cl)cc3)cc2O)n1 [compound 0196305]
Second: Cn1cc(-c2cccc(Cl)c2)c(-c2ccc(OCc3ccc(Cl)cc3)cc2O)n1 [compound 0196351]
The remaining activity at 100 µM of the first is lower: 3% for the first, 130% for the second.

First: COc1ccc(-c2c(-c3ccc(OCc4ccc(Cl)cc4)cc3O)noc2C(F)(F)F)cc1OC [compound 0196306]
Second: COc1ccc(-c2c(-c3ccc(OCc4ccc(Cl)cc4)cc3O)nn(C)c2C(F)(F)F)cc1 [compound 0196340]
The remaining activity at 100 µM of the first is higher: 71% for the first, 35% for the second.

First: COc1ccc(-c2c(-c3ccc(OCc4ccc(Cl)cc4)cc3O)n[nH]c2C(F)(F)F)cc1 [compound 0196312]
Second: Cc1ccc(-c2c(-c3ccc(OCc4ccc(Cl)cc4)cc3O)n[nH]c2C(F)(F)F)cc1 [compound 0196344]
The remaining activity at 100 µM of the first is higher: 51% for the first, 16% for the second.

Compared with `Oc1cc(OCc2ccc(Cl)cc2)ccc1-c1cc(C(F)(F)F)[nH]n1` [compound 0196313], `Cn1nc(-c2ccc(OCc3ccc(Cl)cc3)cc2O)cc1C(F)(F)F` [compound 0196314] is higher in remaining activity at 100 µM: 1% for the first, 76% for the second.

Going from `Cc1ccc(-c2c[nH]nc2-c2ccc(OCc3ccc(Cl)cc3)cc2O)cc1` [compound 0196345] to `Cc1ccc(-c2cn(C)nc2-c2ccc(OCc3ccc(Cl)cc3)cc2O)cc1` [compound 0196346], the remaining activity at 100 µM rises from 102% to 114%.

Compared with `Oc1cc(OCc2ccc(Cl)cc2)ccc1-c1n[nH]c(C(F)(F)F)c1-c1ccc(F)cc1` [compound 0196347], `Cn1nc(-c2ccc(OCc3ccc(Cl)cc3)cc2O)c(-c2ccc(F)cc2)c1C(F)(F)F` [compound 0196348] is lower in remaining activity at 100 µM: 47% for the first, 9% for the second.

First: Cn1cc(-c2ccc(F)cc2)c(-c2ccc(OCc3ccc(Cl)cc3)cc2O)n1 [compound 0196349]
Second: Oc1cc(OCc2ccc(Cl)cc2)ccc1-c1n[nH]cc1-c1cccc(Cl)c1 [compound 0196350]
The remaining activity at 100 µM of the first is higher: 135% for the first, 18% for the second.

First: CCc1ccc(Oc2c(-c3ccc(OCc4ccc(Cl)cc4)cc3OC)nn(C)c2C(F)(F)F)cc1 [compound 0196352]
Second: CCc1ccc(Oc2c(-c3ccc(OCc4ccc(OC)cc4)cc3O)nn(C)c2C(F)(F)F)cc1 [compound 0196358]
The remaining activity at 100 µM of the first is lower: 65% for the first, 98% for the second.

Compared with `CCc1ccc(Oc2c(-c3ccc(OCc4ccc(Cl)cc4)cc3)nn(C)c2C(F)(F)F)cc1` [compound 0196353], `CCc1ccc(Oc2c(-c3ccc(OCCc4ccc(Cl)cc4)cc3O)nn(C)c2C(F)(F)F)cc1` [compound 0196356] is lower in remaining activity at 100 µM: 122% for the first, 68% for the second.

First: CCc1ccc(Oc2c(-c3ccc(OCc4ccc(Cl)c(Cl)c4)cc3O)nn(C)c2C(F)(F)F)cc1 [compound 0196354]
Second: CCc1ccc(Oc2c(-c3ccc(OCc4ccc(Cl)c(Cl)c4)cc3O)n[nH]c2C(F)(F)F)cc1 [compound 0196355]
The remaining activity at 100 µM of the first is higher: 82% for the first, 25% for the second.

Compared with `CCc1ccc(Oc2c(-c3ccc(OCc4ccc(OC)cc4)cc3O)n[nH]c2C(F)(F)F)cc1` [compound 0196359], `Cn1nc(-c2ccc(OCc3ccc(Cl)cc3)cc2O)c(-c2cc(C(F)(F)F)cc(C(F)(F)F)c2)c1C(F)(F)F` [compound 0196360] is higher in remaining activity at 100 µM: 57% for the first, 100% for the second.

Work on `Cn1nc(C(F)(F)F)c(-c2cc(C(F)(F)F)cc(C(F)(F)F)c2)c1-c1ccc(OCc2ccc(Cl)cc2)cc1O` [compound 0196361] yielded a remaining activity at 100 µM of 0%.

Same assay, conditions: EMSA, 200 uM test compound

`CCc1ccc(Oc2c[nH]nc2-c2ccc(OCC3CCCCC3)cc2O)cc1` [NUCC-0176256] was tested, and the “Bound DNA (%) (200uM)” value was 100%.

Same assay, conditions: EMSA, 200 uM test compound; read-out: Bound DNA (%) (200uM)

First: CCc1ccc(Oc2c[nH]nc2-c2ccc(OCc3ccc(Cl)cc3)cc2O)cc1 [NUCC-0176243]
Second: CCc1ccc(Oc2c[nH]nc2-c2ccc(OCCc3ccc(Cl)cc3)cc2O)cc1 [NUCC-0176261]
The remaining activity at 200 µM of the first is lower: 19% for the first, 25% for the second.

First: CCc1ccc(Oc2c[nH]nc2-c2ccc(OCc3ccc(C(F)(F)F)cc3)cc2O)cc1 [NUCC-0176244]
Second: CCc1ccc(Oc2c[nH]nc2-c2ccc(OCc3ccc(F)cc3)cc2O)cc1 [NUCC-0176257]
The remaining activity at 200 µM of the first is higher: 20% for the first, 7% for the second.

First: CCc1ccc(Oc2c(-c3ccc(OCCc4cccc(C(F)(F)F)c4)cc3O)n[nH]c2C(F)(F)F)cc1 [NUCC-0176245]
Second: CCc1ccc(Oc2c[nH]nc2-c2ccc(OCCc3ccc(F)cc3)cc2O)cc1 [NUCC-0176258]
The remaining activity at 200 µM of the first is lower: 0% for the first, 17% for the second.

Compared with `CCc1ccc(Oc2c[nH]nc2-c2ccc(OCc3cnn(C)c3)cc2O)cc1` [NUCC-0176246], `CCc1ccc(Oc2c[nH]nc2-c2ccc(OCc3ccncc3)cc2O)cc1` [NUCC-0176254] is higher in remaining activity at 200 µM: 87% for the first, 101% for the second.

Going from `Oc1cc(OCc2ccc(Cl)cc2)ccc1-c1n[nH]cc1Oc1ccccc1` [NUCC-0176247] to `Oc1cc(OCc2ccncc2)ccc1-c1n[nH]cc1Oc1ccccc1` [NUCC-0176251], the remaining activity at 200 µM rises from 18% to 62%.

Going from `Cc1[nH]nc(-c2ccc(OCc3cnn(C)c3)cc2O)c1Oc1ccccc1` [NUCC-0176249] to `Cc1[nH]nc(-c2ccc(OCc3ccncc3)cc2O)c1Oc1ccccc1` [NUCC-0176252], the remaining activity at 200 µM rises from 85% to 87%.

First: Cc1[nH]nc(-c2ccc(OCc3ccc(Cl)cc3)cc2O)c1Oc1ccccc1 [NUCC-0176253]
Second: Cc1[nH]nc(-c2ccc(OCCc3ccc(Cl)cc3)cc2O)c1Oc1ccccc1 [NUCC-0176262]
The remaining activity at 200 µM of the first is lower: 39% for the first, 54% for the second.

Going from `Oc1cc(OCc2ccccc2)ccc1-c1n[nH]cc1Oc1ccccc1` [NUCC-0176255] to `Cc1[nH]nc(-c2ccc(OCc3ccc(F)cc3)cc2O)c1Oc1ccccc1` [NUCC-0176259], the remaining activity at 200 µM rises from 11% to 26%.

Compound `CCc1ccc(Oc2cn(C)nc2-c2ccc(OCc3ccc(Cl)cc3)cc2O)cc1` [NUCC-0176260] has a remaining activity at 200 µM of 113%.

Same assay, conditions: Table 1; concentration not printed in the table (FIG. 5 and 6 legends: 200 μM test compounds)

`CCc1ccc(Oc2c[nH]nc2-c2ccc(OCC3CCCCC3)cc2O)cc1` [NUCC-0176256] was tested, and the “% Fraction Bound” value was 9.1%.
